# Assay results taken from a melting point compilation (Tetko et al.; mined from patent text by program, amines drawn as free bases though some values may be those of a salt).
row,SMILES,melting point [°C]
1,COc1ccc2c(n1)CCC(=NO)C2,124 to 126
2,O=C(Oc1cccc2c(-c3ccccc3)c3cccc(OC(=O)c4ccccc4)c3c(OC(=O)c3ccccc3)c12)c1ccccc1,255
3,"CCCOC(C)c1ccc(O)cc1 (single isomer, unassigned; (+))",61 to 63
4,CN1CCN(c2ccc(-c3cnc4[nH]cc(C(=O)C5(C)CCCCC5)c4n3)cc2)CC1,225 to 226
5,CCOC(=O)c1nc[nH]c1F,153 to 154
6,CC(C)Cn1c(=O)n(C)c(=O)c2c(SCC(C)O)c(Cc3cccc4ccccc34)sc21 (stereo not given),126 to 128
7,CCn1cc(C(=O)O)c(=O)c2cc(F)c(N3CCC(NC(C)=O)C3)nc21 (stereo not given),283 to 284
8,CCCOc1cnc(CCl)cc1O,165 to 167
9,CCOC(=O)C1(C)C(=O)Nc2cc(NC(=O)c3ccncc3)c([N+](=O)[O-])cc21 (stereo not given),217 to 219
10,CCCSc1sc(C(=O)OCC)c2c1-c1nn(C)cc1CC2,90 to 91
11,CCOc1ccc(S(=O)(=O)Cl)cc1OC,72 to 73
12,CN1C(=O)C(C(=O)Nc2ccc(Cl)cc2Oc2c(Cl)cccc2Cl)C(=O)N(C)C1=S,254 to 257
13,COc1cc2c(cc1-c1cccnc1)-c1c(C3NCCO3)c3c(n1CC2)C(=O)N(C(C)(C)C)CCC3 (stereo not given),218 to 220
14,Cn1cc([N+](=O)[O-])cc1CO,89 to 90
15,O=C1CCc2ccc(O)cc2O1,133 to 136
16,COC(=O)N(N=C(C)C)C(=O)c1ccc(Br)cc1,103 to 104
17,CCOC(=O)C1(O)CCSc2ccccc21 (stereo not given),117 to 119
18,CCOC(=O)c1ncn2c1CN=C(c1ccccc1)c1cc(Cl)ccc1-2,174 to 175
19,CCOC(=O)c1cc(-c2cc(Br)cc(Br)c2)cnc1C,100 to 102
20,COC(=O)CCC/C=C(\c1cc(C)c(OC)c(C(=O)OC)c1)c1cc(C)c2oc(=O)n(C)c2c1,120
21,COC(=O)CCC(=O)c1cc(OC)ccc1OCC1CO1 (stereo not given),50 to 51.5
22,CC(OC(=O)NC1(C(=O)O)CC1)OC(=O)C(C)C (stereo not given),127 to 130
23,O=C(CBr)CCc1ccc(Br)cc1,63 to 64
24,CC(C)c1cc([N+](=O)[O-])cc(C(C)C)c1OS(N)(=O)=O,163 to 167
25,Cc1ccc(/C=C/C(=O)O)n1Cc1ccc(Cl)cc1Cl,181 to 182
26,O=C(COc1cccc(C(F)(F)F)c1)N[C@@H](Cc1ccccc1)C(=O)CSCc1ccco1,72 to 80

row,SMILES,melting point [°C]
1,Cc1cccc(NC(=O)NC2N=C(CN3CC4CCC(CC4)C3)c3cccc(C)c3N(C)C2=O)c1 (stereo not given),146 to 149
2,CCCCn1c(C)c(C)cc(NC(=O)c2ccc(F)cc2)c1=O,129 to 130
3,CS(=O)(=O)Nc1ccc(CCC(=O)O)cc1,152 to 154
4,COc1ccc(C(c2ccc(N(C)C)cc2)c2ccc(N(C)C)cc2C(=O)O)cc1 (stereo not given),185 to 190
5,COC(=O)c1cc(N(CCBr)CCBr)c(S(C)(=O)=O)cc1[N+](=O)[O-],161 to 162
6,NC(=O)COc1ccccc1N,117
7,COc1ccc2c(c1)-c1c(OC)ccc3c1C(C2=O)N(C)CC3 (stereo not given),162 to 164
8,Cc1sc(Nc2cccc(I)n2)nc1-c1cn[nH]c1,> 260
9,Cn1c(C(F)(F)F)cc(=O)n(-c2cc(OC(=O)Nc3cccc(C(F)(F)F)c3)c(Cl)cc2F)c1=O,153 to 155
10,COC(=O)C1=C(C)NC(CCn2ccnc2)=C(C(=O)OC)C1c1cccc(Cl)c1Cl (stereo not given),180 to 182
11,CCN(CC)C(=O)c1cnn(C)c1C(=O)Nc1ccn2nc(N3CCOCC3)nc2c1,165 to 167
12,COc1ccc2c(c1)CN(C(N)=O)N=C2Cc1c(Cl)cncc1Cl,> 230
13,CC(C)CCC(O)C(CC1CCCCC1)NC(=O)C(Cc1c[nH]cn1)N(C)C(=O)C(Cc1ccccc1)NC(=O)N(C)CCN(C)C(=O)N1CCOCC1 (stereo not given),89 to 92
14,COc1ccc2[nH]cc(CC3=CCCN(CCCC(O)c4ccc(F)cc4)C3)c2c1 (stereo not given),160 to 170
15,COC(=O)c1ccc(=O)n(N)c1,136 to 137
16,O=C(CCCCC1(c2ccccc2)CC(O)=C(SCCc2ccccc2)C(=O)O1)NCc1ccccc1 (stereo not given),47 to 49
17,CC(Br)C(=O)NC1=NN(c2cccc(C(F)(F)F)c2)CC1 (stereo not given),54 to 56
18,CC(=O)n1ccc(N2CCCC2)c1C(=O)c1cccnc1Nc1cccc(Cl)c1,170 to 173
19,COc1cc2c(OC)c3c(c(-c4ccc5c(c4)OCO5)c2cc1OC)C(=O)OC3,256 to 258
20,CCOC(=O)c1sc(SC)c(C(=O)CC(C)=O)c1C,51 to 52
21,COCOC(c1cc(CBr)ccc1I)(C(F)(F)F)C(F)(F)F,93
22,COC(=O)c1ccc(N2CCCC2=O)c([N+](=O)[O-])c1,159 to 161
23,COC(=O)c1cccc(O)c1C,74 to 75
24,O=C1CC(C(F)(F)F)CC(=O)N1c1ccc(Br)cc1,163 to 164
25,CC(=O)CN(c1ccc(Cl)cc1)S(C)(=O)=O,108
26,CC(Br)C(=O)c1ccc(OC(=O)C(C)(C)C)c(OC(=O)C(C)(C)C)c1 (stereo not given),58 to 60

# Second part, the molecule after the results:
row,melting point [°C],SMILES
1,199,CNC(=O)c1cc(-c2ccc(OC)cc2)nn(Cc2ccc([N+](=O)[O-])cc2)c1=O
2,173 to 174,N#Cc1ccc2oc(Cc3cc4cc(C#N)ccc4o3)cc2c1
3,181,CCCCn1c(=O)cnn(-c2ccc(N3CCN(c4ccc(OC)cc4)CC3)cc2)c1=O
4,154,COc1ccc(S(=O)(=O)N2Cc3[nH]c4ccccc4c3CC2C(=O)O)cc1 (stereo not given)
5,84 to 86,CCc1ccc(-c2nc3ccccc3o2)cc1
6,303,Cn1cc(-c2cc3cccnc3[nH]2)c2cc(-c3nn[nH]n3)ccc21
7,176 to 178,N#Cc1ccc(Oc2ccccc2NC(=O)c2cccc([N+](=O)[O-])c2)cc1C#N
8,214 to 216,OCc1c(F)ccc(-c2ccc3nc(-c4ccc(Cl)cc4)cn3c2)c1F
9,125,CC(=O)N1c2ccccc2Sc2cc(F)ccc21
10,192 to 195,Clc1ccc(Nc2ncc(Sc3ccncc3)c3ccccc23)cc1
11,297,Clc1cc2nc(-c3ccncc3)[nH]c2cc1Cl
12,132 to 133,CC(=O)OCc1cc2cc(OCc3ccccc3)ccc2n1Cc1ccc(C(C)(C)C)cc1
13,135 to 137,CCCc1c(OCCCCCc2ccc3cc(OC)c(OC)cc3c2)ccc(C(=O)O)c1O
14,111 to 112,COCC(Oc1ccc(-n2c(C)nc3cc(C(F)(F)F)ccc32)cc1)C(=O)O (stereo not given)
15,290 to 294,C=C(C)Cn1cnc2c(N)nc3ccccc3c21
16,191 to 192,CCOC(=O)c1ccc(C=Cc2ccc(OC)cc2)cc1
17,266 to 267,CC1(C)Oc2ccc(C#N)cc2[C@H](N(Cc2ncc[nH]2)c2ccc(Cl)cc2)[C@H]1O
18,96 to 97,CN(C)CCCn1c(-c2ccc(C#N)cc2)cc2c1CCCCC2
19,149,CCOC(=O)c1ccc(/C=C/c2ccc(O)c(C3(C)CCCCC3)c2)cc1
20,298 to 299,CCCCc1nc2ccc(C)c(C(=O)O)c2n1Cc1ccc(-c2ccccc2-c2nnn[nH]2)cc1
21,164 to 167,Nc1nc2ccc(CCN3CCC(Oc4ccccc4)CC3)cc2s1
22,63 to 65,Cc1nc(NC(=O)Cc2ccccc2)sc1C(=O)NCc1ccccc1
23,264,CS(=O)(=O)c1ccc(-c2cc(C(=O)O)sc2-c2ccc(F)cc2)cc1
24,238,CCc1ccc(NC2=CC3=NCN(C)C3=CC2(F)C(=O)OC)c(F)c1 (stereo not given)

row,melting point [°C],SMILES
1,191 to 192,CCOC(=O)c1cc2ccc(Cl)c(NS(=O)(=O)c3cccs3)c2[nH]1
2,162 to 163,COc1ccc(CSc2nnc(-c3ccc4occ(-c5ccc(OC)cc5)c4c3)o2)cc1
3,120 to 125,COc1ccc(-c2cc(CBr)c(=O)n(Cc3ccc(F)cc3)n2)cc1F
4,160,Cc1cc(-c2ccc(C(F)(F)F)cc2)cc(-c2cccc(-c3ccnc(N)c3)n2)n1
5,152 to 154,COC(=O)CCc1ccc(-n2c(C)c(C)[nH]c2=O)cc1
6,145 to 149,CCc1ccc(-c2ccc(I)cc2)cc1
7,79.5 to 82,CC(=O)Oc1ccc(O[C@@H]2CCN(C)C[C@H]2c2ccccc2)cc1 (relative stereo)
8,163 to 165,CNC(=O)N(O)CC#Cc1cccc(C2=N[C@H](c3ccccc3)CO2)c1
9,69,CCOc1c(C(=O)Nc2ccccc2)csc1Cl
10,192,O=C(O)CNC(=O)Nc1ccc(CC(=O)OCc2ccccc2)cc1
11,182 to 185,O=C(O)C1C(c2ccc3c(c2)OCO3)c2ccccc2C1c1ccc2c(c1)OCO2 (racemic)
12,118 to 119,O=C1NCCc2c(-c3ccc(Cl)c(C(F)(F)F)c3)[nH]c3cccc1c23
13,144 to 145,O=c1cc(-c2ccncc2)oc2ccccc12
14,116 to 118,CCOC(=O)COc1ccc(S(=O)(=O)c2ccc(C)nc2Nc2c(C)cc(C)cc2C)cc1
15,177 to 179,Nc1nccc(N2CCc3ccccc32)n1
16,154 to 155,COc1c(C(=O)O)oc2c3ccccc3n(-c3ccccc3)c12
17,203,COc1ccc(CCc2ccc(NC(=O)C(=O)c3sc4ccccc4c3O)cc2)cc1OC
18,295,COc1ccc(-c2nnc(NC3CCN(Cc4ccc(C(=O)O)cc4)CC3)c3cc(OC)ccc23)cc1
19,111 to 122,CC(C)C[C@H](NC(=O)c1c(F)cccc1F)C(=O)N[C@@H](C(C)C)[C@@H](O)c1c(-c2ccccc2)c1=O
20,169 to 170,FC(F)(F)c1ccc(CCc2cc(OCc3ccccc3)c(OCc3ccccc3)nn2)cc1Cl
21,220 to 222,CC(C)(CNc1ccc(C2=NNC(=O)CC2)cc1)[N+](=O)[O-]
22,152 to 155,CCOP(=O)(OCC)C(F)c1ccc(NC(=O)CCc2oc(-n3cnc4ccccc43)nc2-c2ccc(Cl)cc2)cc1 (stereo not given)
23,121 to 122,O=c1ccoc(C(O)c2ccccc2)c1OCc1ccccc1 (stereo not given)
24,184 to 185,CCn1c2ccccc2c2oc(C#N)cc(=O)c21
